{"source": "paper PMC8231504", "about": "“A Biophysical Insight of Camptothecin Biodistribution: Towards a Molecular Understanding of Its Pharmacokinetic Issues” (Pharmaceutics, 2021)", "key": {"[1]": {"test": "Distribution coefficient in membrane/aqueous system, cancer cell membrane model", "assay_type": "physicochemical", "conditions": "for LogD: cancer cells membranes, 37 °C", "source_text": "(§1) Single-lipid liposomal membrane models composed of DMPC, or lipid mixture liposomal membrane models mimetic of breast cancer cell membrane—DOPC (25%), CHOL (15%), EPC (31.8%), DOPS (17%), DOPE (8%), cardiolipin (2.5%) and SM (0.7%)—mimetic of cell membrane—[…], DOPE (20%), DOPS (20%), CHOL (10%), and SM (10%)—and, blood–brain barrier (BBB) membrane constituted by the BPL—phosphocholine (PC) (12.6%), phosphatidyl ethanolamine (PE) (33.1%), PI (4.1%), phosphatidyl serine (PS) (18.5%), and PA (0.8%) were prepared by the classical thin film hydration method. Briefly, lipids were co-dissolved in chloroform:methanol (8:2, v/v) and the solvents were evaporated under a stream of nitrogen in a rotary evaporator (Buchi R-200; Sigma-Aldrich Corp., Buchs, Switzerland). The resultant dried lipid film was hydrated with buffer at temperature of 40 ± 0.1 °C and lipid colloidal dispersions were formed by alternating vortex and thermostatic bath (40 ± 0.1 °C). […]\n(§2) The distribution coefficient (LogD) of CPT between membrane and aqueous buffered solution (pH 5.8 for breast cancer cell membrane model and pH 7.4 for cell membrane model and BBB membrane model) was determined by fluorescence spectroscopy and derivative UV-Vis spectroscopy. […] The samples contained a fixed concentration of CPT (2 × 10^−5M) and increasing concentrations of lipid suspension (0 to 1 × 10^−3 M for absorbance or 3 × 10^−3 M for fluorescence). […] The fluorescence spectra were also measured on a Perkin-Elmer LS-50B spectrofluorimeter. The emission spectra were obtained in 380–480 nm range with λexcitation = 250 nm and the excitation spectra were recorded in 220–400 nm range with λemission = 430 nm. […] The second and third derivative spectra of the absorbance UV-Vis spectra were determined to improve the resolution of spectral bands and to eliminate the spectral interferences due to light scattered by the lipid suspensions. […]\n(§3) Because CPT is a fluorescent compound with spectral variations due to its distribution between the lipid/aqueous phases (e.g., λ shifts), logD of CPT can also be calculated using fluorescence spectroscopy. […]"}, "[2]": {"test": "Distribution coefficient in membrane/aqueous system, normal cell membrane model", "assay_type": "physicochemical", "conditions": "for LogD: normal cells membranes (DOPC, DOPE, DOPS, CHOL, SM)", "source_text": "as §1, §2, §3"}, "[3]": {"test": "Distribution coefficient in membrane/aqueous system, BBB membrane model", "assay_type": "physicochemical", "conditions": "BBB endothelial membrane, pH 7.4, derivative spectroscopy", "source_text": "Single-lipid liposomal membrane models composed of DMPC, or lipid mixture liposomal membrane models mimetic of breast cancer cell membrane—DOPC (25%), CHOL (15%), EPC (31.8%), DOPS (17%), DOPE (8%), cardiolipin (2.5%) and SM (0.7%)—mimetic of cell membrane—DOPC (45%), DOPE (20%), DOPS (20%), CHOL (10%), and SM (10%)—and, blood–brain barrier (BBB) membrane constituted by the BPL—phosphocholine (PC) (12.6%), phosphatidyl ethanolamine (PE) (33.1%), PI (4.1%), phosphatidyl serine (PS) (18.5%), and PA (0.8%) were prepared by the classical thin film hydration method. […]\nThe distribution coefficient (LogD) of CPT between membrane and aqueous buffered solution (pH 5.8 for breast cancer cell membrane model and pH 7.4 for cell membrane model and BBB membrane model) was determined by fluorescence spectroscopy and derivative UV-Vis spectroscopy. […] The samples contained a fixed concentration of CPT (2 × 10^−5M) and increasing concentrations of lipid suspension (0 to 1 × 10^−3 M for absorbance or 3 × 10^−3 M for fluorescence). […] The fluorescence spectra were also measured on a Perkin-Elmer LS-50B spectrofluorimeter. The emission spectra were obtained in 380–480 nm range with λexcitation = 250 nm and the excitation spectra were recorded in 220–400 nm range with λemission = 430 nm. […]"}, "HSA [4]": {"biological_target": "HSA (Homo sapiens, UniProt P02768)", "sequence (P02768 25-609)": "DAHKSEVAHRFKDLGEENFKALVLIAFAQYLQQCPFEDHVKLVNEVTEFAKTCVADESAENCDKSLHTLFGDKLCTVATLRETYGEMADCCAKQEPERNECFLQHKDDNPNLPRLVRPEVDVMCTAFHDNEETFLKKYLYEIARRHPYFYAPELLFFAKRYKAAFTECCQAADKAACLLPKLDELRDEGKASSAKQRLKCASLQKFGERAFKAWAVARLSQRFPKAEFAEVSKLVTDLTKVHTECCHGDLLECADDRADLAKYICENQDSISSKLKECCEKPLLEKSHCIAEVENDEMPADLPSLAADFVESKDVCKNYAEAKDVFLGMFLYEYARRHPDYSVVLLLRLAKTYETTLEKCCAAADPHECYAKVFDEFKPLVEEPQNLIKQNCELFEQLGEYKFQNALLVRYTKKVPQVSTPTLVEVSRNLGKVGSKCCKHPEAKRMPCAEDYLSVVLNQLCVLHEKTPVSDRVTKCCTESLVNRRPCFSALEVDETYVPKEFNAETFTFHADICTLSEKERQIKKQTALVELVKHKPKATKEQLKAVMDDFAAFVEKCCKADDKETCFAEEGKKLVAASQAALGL", "test": "Plasma protein binding by steady-state fluorescence quenching", "method": "The fluorescence excitation and emission spectra of increasing CPT concentrations (0 to 3 × 10^−4 M) with a constant HSA concentration (2.0 × 10^−6 M) were acquired at 37.0 ± 0.1 °C (Perkin-Elmer LS-50B spectrofluorimeter, Waltham, USA), with excitation at 280 nm and emission at 342 nm, each with 5 nm slits. The following binding isotherm equation can be used to explain the quenching of HSA fluorescence caused by increasing CPT concentrations:(6) % Quenching=ymáx·n/1+Kdiss/[CPT] where ymax is the maximum fluorescence quenching measured, n is the number of binding sites of HSA to CPT, and Kdiss is the dissociation constant (i.e., the inverse of binding constant, Kbind). In addition, the following equation expresses the relationship between the Kdiss value and the Gibbs free energy ( Δ G) of complex binding:(7) ΔGbind=[…] where R is the ideal gas constant and T is the temperature in Kelvin (K)."}, "[5]": {"test": "Modelling biodistribution using in vitro parameters", "design": "species or system human", "conditions": "for predicted off-target distribution / bioaccumulation: Equation (9)", "method": "(§4) The logD value obtained can be used with in silico descriptors to predict many biodistribution parameters using mathematical methods. As a result, the value of logD was used to predict CPT bioaccumulation (as expressed by the bioaccumulation constant, Kbioaccumulation), which is associated to tissue blood flow (Q) and its volume (V):(9) Kbioaccumulation=Q/V·logD\n(§5) To determine if the drug is stored in adipose tissue, the adipose store index (ASI) of CPT was calculated using the following equation [28]:(10) ASI=1.81·logD−logD+0.40\n(§6) Furthermore, the obtained distribution coefficient in the BPL model system—logD(BBB)—can be compared to logBB, according to Waterbeem and Kansy. The logarithm of the ratio of drug concentrations in brain and blood is known as logBB, and it represents the drug’s relative affinity variations between plasma proteins and brain tissue:(11) logBB=0.388·logDBBB−0.00618·Vm+1.359 where Vm is the membrane model system’s molar volume, determined from the individual lipid volumes.\n(§7) The steady-state volume distribution (VDSS) is one of the most useful PK criteria for describing a drug’s biodistribution. The effect of the PPB, permeability, partitioning, and active transport on the drug’s physiological distribution is translated by this predictor. Based on human clinical PK evidence of a wide set of drugs (670 drugs), the first physiological statistical model of VDSS for predicting the biodistribution of neutral and basic drugs was proposed:(12) VDSS=VP·(1+RE/L)+fu·VP(VE/VP−RE/L)+VR·fu/fut where VP and VE are the plasma and extracellular fluid volumes with corresponding value in human of […]; RE/I represents the ratio of extravascular and intravascular proteins, and is strictly referred to the distribution of albumin, assuming an approximate value of 1.4; VR is defined as the physical volume into which the drug distributes minus the extracellular space (0.380 L∙Kg^−1); fu and fut are, respectively, the unbound drug fraction in plasma and the unbound fraction in tissues.\n(§8) The fu values can be obtained by the following equation [33]:(13) fu=1−PPB/100 where PPB can be obtained from the in vitro values of Kbind:(14) PPB=100/1+1/CP·Kbind where CP is the physiological plasma protein concentration (750 μM).\n(§9) Lastly, fut can be obtained by the following equation [32]:(15) logfut=−0.0289−0.1739·logD−0.8324·fi(7.4)+1.0400·logfu where fi(7.4) is the fraction of ionized drug at pH 7.4 which has been calculated considering the pH hydrolysis and conversion of CPT from lactone neutral form to the anionic form carboxylate reported."}, "HSA [6]": {"test_system": "HSA", "test": "Modelling biodistribution using in vitro parameters", "design": "species or system human", "conditions": "human, plasma proteins (calculated from in vitro Kbind to HSA); from Kbind to HSA, Equation (14); read-out: PPB (converted)", "method": "as §4, §5, §6, §7, §8, §9"}, "[7]": {"test": "Literature in vivo steady-state volume of distribution", "conditions": "human, converted from 190 ± 46 L·m^−2 with body surface 1.9 m^2 and body weight 70 kg, ref [71], read-out: in vivo VDSS"}, "[8]": {"design": "method as in PMID 30869853, PMID 21430952", "conditions": "DMPC or DMPG, pH 7.4, fluorescence anisotropy; ref [16],[45],[46]; cited from earlier work"}, "[9]": {"design": "method as in doi:10.1021/jp035260s", "conditions": "DOPC, pH 7.4, fluorescence anisotropy; ref [47]; cited from earlier work"}, "[10]": {"design": "method as in doi:10.1021/jp035260s", "conditions": "DOPG, pH 7.4, fluorescence anisotropy; ref [47]; cited from earlier work"}, "BSA": {"test_system": "BSA", "design": "method as in Li et al. [17]", "conditions": "ref Li et al. [17]; cited from earlier work"}, "[11]": {"design": "method as in PMID 22520977", "conditions": "after 2 h in contact with human blood; ref [3]; cited from earlier work"}, "[12]": {"design": "method as in PMID 30654016", "conditions": "at lower concentrations (5 µM); ref [38]; cited from earlier work"}, "C26 colon carcinomas": {"test_system": "C26 colon carcinomas", "design": "method as in PMID 18384903", "conditions": "2.5 mg∙Kg^−1 dose of CPT; ref [79]; cited from earlier work"}, "[13]": {"conditions": "fluorescence spectroscopy, ref [18],[47],[48] (table), [18],[49],[50]; cited from earlier work"}}, "note": "Where two headings read alike, the source gives them in different places."}
{"smiles": "CC[C@@]1(O)C(=O)OCc2c1cc1n(c2=O)Cc2cc3ccccc3nc2-1", "note": "[CPT, Camptothecin]", "values": [{"measurement": "LogD", "setting": "[1]; pH 5.8, derivative UV-Vis spectroscopy", "result": "3.14 ± 0.13 ^ns"}, {"measurement": "LogD", "setting": "[1]; pH 5.8, fluorescence spectroscopy", "result": "3.01 ± 0.31 ^ns"}, {"measurement": "logD in the cancer cell membrane model", "setting": "[1]; mean of the two methods, pH 5.8", "result": "3.08 ± 0.22"}, {"measurement": "average logD", "setting": "[2]; average over normal and cancer cell membrane models and both methods", "result": "2.89 ± 0.23"}, {"measurement": "LogD", "setting": "[2]; pH 7.4, derivative UV-Vis spectroscopy", "result": "2.78 ± 0.28 ^ns"}, {"measurement": "LogD", "setting": "[2]; pH 7.4, fluorescence spectroscopy", "result": "2.63 ± 0.15 ^ns"}, {"measurement": "LogD", "setting": "[3]", "result": "3.64 ± 0.15"}, {"measurement": "Kd", "setting": "HSA [4]; HSA 2.0 × 10^−6 M, 37 °C, read-out: dissociation constant Kdiss", "result": 65.7, "unit": "µM"}, {"measurement": "binding constant Kbind", "setting": "HSA [4]; HSA, 37 °C", "result": "1.52 ± 0.26 × 10^4 M^−1"}, {"measurement": "number of binding sites n", "setting": "HSA [4]; HSA, 37 °C", "result": 1}, {"measurement": "Gibbs free energy ΔGbind", "setting": "HSA [4]; HSA, Equation (7)", "result": "-5.93 ± 0.10", "unit": "kcal/mol"}, {"measurement": "adipose storage index (ASI)", "setting": "[5]; Equation (10), from logD", "result": "2.53 ± 0.12"}, {"measurement": "LogBB (brain accumulation index)", "setting": "[5]; Equation (11), from logD in BBB endothelial membrane", "result": "2.76 ± 0.06"}, {"measurement": "predicted off-target distribution / bioaccumulation", "setting": "[5]; adrenal glands, from logD in normal cell membrane model", "result": 61.44, "unit": "%"}, {"measurement": "free drug available for distribution to the tissues", "setting": "[5]; from PPB", "result": 8.05, "unit": "%"}, {"measurement": "predicted off-target distribution / bioaccumulation", "setting": "[5]; heart", "result": 3.07, "unit": "%"}, {"measurement": "fraction unbound", "setting": "[5]; human, plasma (calculated from PPB), Equation (13), read-out: unbound fraction in plasma fu", "result": 0.081}, {"measurement": "fraction unbound", "setting": "[5]; human, tissues (predicted), Equation (15), read-out: unbound fraction in tissues fut", "result": 0.0054}, {"measurement": "Vd", "setting": "[5]; human, Equation (12), from in vitro logD and PPB, read-out: VDSS (steady-state volume of distribution)", "result": "5.75 ± 0.932", "unit": "L/kg"}, {"measurement": "predicted off-target distribution / bioaccumulation", "setting": "[5]; kidneys", "result": 3.07, "unit": "%"}, {"measurement": "predicted off-target distribution / bioaccumulation", "setting": "[5]; thyroid", "result": 30.72, "unit": "%"}, {"measurement": "fraction unbound", "setting": "HSA [6]", "result": 0.0805}, {"measurement": "Vd", "setting": "[7]", "result": "5.16 ± 1.25", "unit": "L/kg"}, {"measurement": "LogD", "setting": "[8]", "result": "2.00 ± 0.16"}, {"measurement": "LogD", "setting": "[9]", "result": "1.55 ± 0.05"}, {"measurement": "LogD", "setting": "[10]", "result": "1.97 ± 0.05"}, {"measurement": "binding constant Kbind with BSA", "setting": "BSA", "result": 37200, "unit": "M⁻¹"}, {"measurement": "CPT lactone form remaining", "setting": "[11]", "result": 5, "unit": "%"}, {"measurement": "Papp", "setting": "[12]", "result": 30, "unit": "×10⁻⁶ cm/s"}, {"measurement": "AUC (blood plasma)", "setting": "C26 colon carcinomas", "result": 1100, "unit": "ng·h/mL"}, {"measurement": "LogD / logP in octanol:water", "setting": "[13]", "result": "1.73 ± 0.08"}]}
